The record followed here is US10858335B2 (Rigel Pharmaceuticals, Inc., priority 2014, dated 2020).

pIC50: −log10 of the molar value.

The test system of the first experiment is GDF8 signaling (p-SMAD-3 (Ser423/425)). Put plainly: AlphaScreen SureFire SMAD3 (p-Ser423/425) assay, GDF8-stimulated cells (GDF pSMAD). The format is cell-based. To be noted: Mus musculus, MPC-11, GDF8-stimulated pSMAD3, MPC11; tested as the salt form given; read-out: GDF pSMAD (MPC11) (μM), inhibition of GDF8 signaling. For orientation: In Alpha technology, singlet oxygen from a donor bead excites a nearby acceptor bead.
Consider `Nc1ncnc2ccc(-c3cccnc3-c3cc(O)c(F)cc3F)cc12` [compound 1013, 5-(3-(4-aminoquinazolin-6-yl)pyridin-2-yl)-2,4-difluorophenol], for which the IC50 was determined as 1.05 µM. Same read-out and setting: to `Fc1cc(F)c(F)c(-c2ncccc2-c2ccc3ncsc3c2)c1` [compound 1055] belongs 0.129 µM. Same read-out and setting: to `c1cnc(-c2ccc3occc3c2)c(-c2ccc3ncsc3c2)c1` [compound 1073] belongs 0.48 µM.

Staying with this experiment, now noted: Mus musculus, MPC-11, MPC11; GDF8-stimulated; p-SMAD3 AlphaScreen; read-out: GDF pSMAD (MPC11) (inhibition of GDF8 signaling).
Consider `Cc1cc(-c2ncccc2-c2ccc3ncnn3c2)ccc1F` [Compound 191, 6-(2-(4-Fluoro-3-methylphenyl)pyridin-3-yl)-[1,2,4]triazolo[1,5-a]pyridine], for which the pIC50 is 6.18.

For the compound `COC(=O)c1cc(-c2cccnc2-c2ccc(F)c(C)c2)cc2cn[nH]c12` [compound 190, Methyl 5-(2-(4-fluoro-3-methylphenyl)pyridin-3-yl)-1H-indazole-7-carboxylate], the pIC50 was 5.81. On the same count and under the same terms, to `Nc1ncnc2ccc(-c3cccnc3-c3cccc(O)c3)cc12` [compound 456, 3-(3-(4-Aminoquinazolin-6-yl)pyridin-2-yl)phenol] belongs 6.52.

For the compound `Cc1cc(-c2ncc(N3CCN(C)CC3)cc2-c2ccc3ncsc3c2)ccc1F` [compound 319, 6-(2-(4-Fluoro-3-methylphenyl)-5-(4-methylpiperazin-1-yl)pyridin-3-yl)benzo[d]thiazole], the pIC50 was 4.97. The same measure, in the same setting: under `Cc1cc(-c2ncccc2-c2ccc3ncc(C(=O)Nc4ccc(C(N)=O)cc4)n3c2)ccc1F` [compound 618, N-(4-Carbamoylphenyl)-6-(2-(4-fluoro-3-methylphenyl)pyridin-3-yl)imidazo[1,2-a]pyridine-3-carboxamide] stands 5.95; under `Nc1nc2ccc(-c3cccnc3-c3ccc(F)c(Cl)c3)nc2s1` [compound 302, 5-(2-(3-Chloro-4-fluorophenyl)pyridin-3-yl)thiazolo[5,4-b]pyridin-2-amine], 6.10.

Regarding `O=c1cnc2ccc(-c3cccnc3-c3ccc(F)c(Cl)c3)cc2[nH]1` [compound 890, 7-(2-(3-Chloro-4-fluorophenyl)pyridin-3-yl)quinoxalin-2(1H)-one], the pIC50 was 5.89. As for `Nc1ccnc2ccc(-c3cccnc3-c3ccc(F)c(Cl)c3)cc12` [compound 837, 6-(2-(3-Chloro-4-fluorophenyl)pyridin-3-yl)quinolin-4-amine], the pIC50 was 5.31. Still for that read-out and setting: to `O=c1nc[nH]c2ccc(-c3cccnc3-c3ccc(F)c(Cl)c3)cc12` [compound 388, 6-(2-(3-Chloro-4-fluorophenyl)pyridin-3-yl)quinazolin-4(1H)-one] belongs 6.26. Same read-out and setting: to `COc1ncnc2ccc(-c3cccnc3-c3ccc(F)c(C)c3)cc12` [compound 375, 6-(2-(4-Fluoro-3-methylphenyl)pyridin-3-yl)-4-methoxyquinazoline] belongs 6.82. Same read-out and setting: under `Cc1ccc(F)c(-c2ncccc2-c2ccc3ncc(C#N)n3c2)c1` [compound 624, 6-(2-(2-Fluoro-5-methylphenyl)pyridin-3-yl)imidazo[1,2-a]pyridine-3-carbonitrile] stands 6.79; under `Fc1ccccc1-c1ncccc1-c1ccc2ncsc2c1` [compound 657, 6-(2-(2-Fluorophenyl)pyridin-3-yl)benzo[d]thiazole], 5.46; under `c1cc(-c2ncccc2-c2ccc3[nH]ncc3c2)cc(C2CC2)c1` [Compound 150, 5-(2-(3-Cyclopropylphenyl)pyridin-3-yl)-1H-indazole], 6.68. In the case of `O=C(NCCCN1CCCC1=O)c1cnc2ccc(-c3cccnc3-c3cc(Cl)ccc3F)cn12` [compound 729, 6-(2-(5-Chloro-2-fluorophenyl)pyridin-3-yl)-N-(3-(2-oxopyrrolidin-1-yl)propyl)imidazo[1,2-a]pyridine-3-carboxamide], the pIC50 is 6.54. On the same count and under the same terms, under `NC(=O)c1ccnc2ccc(-c3cccnc3-c3cccc(Cl)c3)cc12` [compound 848, 6-(2-(3-Chlorophenyl)pyridin-3-yl)quinoline-4-carboxamide] stands 4.95; under `Cc1cc(-c2ncccc2-c2ccc3ncc(C#N)n3c2)ccc1F` [compound 557, 6-(2-(4-Fluoro-3-methylphenyl)pyridin-3-yl)imidazo[1,2-a]pyridine-3-carbonitrile], 6.36; under `Cc1cc(-c2ncccc2-c2ccc3cnc(C(=O)NCCN4CCCC4)n3c2)ccc1F` [compound 272, 6-(2-(4-Fluoro-3-methylphenyl)pyridin-3-yl)-N-(2-(pyrrolidin-1-yl)ethyl)imidazo[1,5-a]pyridine-3-carboxamide], 5.47. On to `CN1CCC(NC(=O)c2cnc3ccc(-c4cccnc4-c4ccc(F)c(Cl)c4)cn23)CC1` [compound 709, 6-(2-(3-Chloro-4-fluorophenyl)pyridin-3-yl)-N-(1-methylpiperidin-4-yl)imidazo[1,2-a]pyridine-3-carboxamide], for which the pIC50 is 6.60.

Consider `CN1CCC(NC(=O)c2cnn3ccc(-c4cccnc4-c4ccc(F)c(Cl)c4)nc23)CC1` [compound 899, 5-(2-(3-Chloro-4-fluorophenyl)pyridin-3-yl)-N-(1-methylpiperidin-4-yl)pyrazolo[1,5-a]pyrimidine-3-carboxamide], for which the pIC50 was 5.67.

Regarding `Cc1cc(-c2ncccc2-c2ccn3ncc(C(=O)NCCC45CCCN4CCC5)c3c2)ccc1F` [compound 805, 5-(2-(4-Fluoro-3-methylphenyl)pyridin-3-yl)-N-(2-(tetrahydro-1H-pyrrolizin-7a(5H)-yl)ethyl)pyrazolo[1,5-a]pyridine-3-carboxamide], the pIC50 is 6.02. Still for that read-out and setting: under `Fc1cc(F)c(-c2ncccc2-c2ccc3nccnc3n2)cc1F` [compound 741, 6-(2-(2,4,5-Trifluorophenyl)pyridin-3-yl)pyrido[2,3-b]pyrazine] stands 5.00; under `CCc1ncc(CNc2cnc(-c3ccc(F)c(C)c3)c(-c3ccc4ncsc4c3)c2)[nH]1` [compound 323, 5-(Benzo[d]thiazol-6-yl)-N-((2-ethyl-1H-imidazol-5-yl)methyl)-6-(4-fluoro-3-methylphenyl)pyridin-3-amine], 6.49. On the same count and under the same terms, under `Cc1cc(-c2ncccc2-c2ccc3ncc(C(F)(F)F)n3c2)ccc1F` [compound 555, 6-(2-(4-Fluoro-3-methylphenyl)pyridin-3-yl)-3-(trifluoromethyl)imidazo[1,2-a]pyridine] stands 6.81; under `Cc1cc(-c2ncccc2-c2ccc3ncn(CCCN4CCOCC4)c3c2)ccc1F` [compound 252, 4-(3-(6-(2-(4-fluoro-3-methylphenyl)pyridin-3-yl)-1H-benzo[d]imidazol-1-yl)propyl)morpholine], 4.90; under `Cc1c(-c2cccnc2-c2cc(Cl)ccc2F)ccc2ncnn12` [compound 812, 6-(2-(5-Chloro-2-fluorophenyl)pyridin-3-yl)-5-methyl-[1,2,4]triazolo[1,5-a]pyridine], 5.67. On the same count and under the same terms, under `Fc1cc(F)cc(-c2ncccc2-c2ccc3ncsc3c2)c1` [compound 660, 6-(2-(3,5-Difluorophenyl)pyridin-3-yl)benzo[d]thiazole] stands 5.65; under `COc1cccc(-c2ncccc2-c2ccc3ncnc(N)c3c2)c1` [compound 451, 6-(2-(3-Methoxyphenyl)pyridin-3-yl)quinazolin-4-amine], 6.94.
